Experimental data published in patent US20040242669A1, “Method of treating deficits associated with brain injury” (priority 2003, published 2004).
Marks after values point to notes of the source that are not given here.

How the values were obtained:
Assay type in all cases: in vivo, rat
[1] = tested on: reduced glutathione in brain areas of rats subjected to hypobaric hypoxia; assay: Brain glutathione content and redox index after hypobaric hypoxia; conditions: for reduced glutathione content: mean ± S.E.M.
Protocol: (§1) At the end of the behavioral studies, the brain of animals sacrificed by decapitation were taken and rapidly frozen for analysis. Dissection and weighing were carried out at −25° C. The frozen forebrains were immediately powered under liquid nitrogen by an electromechanical apparatus and stored at […]. The assay of reduced and oxidized glutathione by 5,5′-dithibis-(2-nitrobenzoic acid) in frozen forebrain powder was carried out within 3 h, utilizing perchloric acid and N-ethylmaleimide in presence of ethylenediamidetetraacetic acid for the extraction procedure (Tietze, Anal Biochem, 27, 502-522, (1969)).
(§2) In the first experiment, the effects of ropinirole or DHECP were studied on amnesia induced by hypobaric hypoxia in rats. After a 7-day pretreatment with ropinirole, DHECP or saline, a group of animals was subjected to acute hypobaric hypoxia by means of a hypobaric chamber (Chantiers et Ateliers de Bretagne, France) causing depression to 300 mmHg (Boismare et al., Gerentology, 24, 6-13 (1978)). After 3 min in the chamber, the animals were removed and admitted for behavioral testing. Intact control rats were also introduced into the chamber but not subjected to hypobaric hypoxia.
(§3) All animals used for hypobaric hypoxia induced amnesia and for chronic brain occlusive ischemia was sacrificed at the end behavioral procedure for biochemical analyses.

[2] = tested on: animals with chronic brain occlusive ischemia; assay: Step-through passive avoidance, chronic brain occlusive ischemia; conditions: for Latency: median latency to re-enter dark box, max 300 s
Protocol: (§4) Male rats of the Sprague-Dawley strain (purchased from Charles River, Italy) weighing 280±20 g were used throughout all experiments. The animals were housed two-three to a cage under a constant light-dark cycle (lights on between 8.00 and 20.00) at 21° C. Commercial food and tap water were available ad libitum. All animals were used only once in the behavioral experiments.
(§5) A number of animals were subjected to a manipulation of the four major arteries of the brain with a method similar to that described by Pulsinelli et al., Ann. Neurol, 11, 491-498 (1982). Both vertebral arteries were cauterised under sodium pentobarbital anaesthesia and polyethylene cuffs PE-10 were placed loosely around the common carotid arteries without completely interrupting carotid blood flow. Two months after operation, all surviving animals showing no neurological gross abnormalities were admitted to drug treatment. Animals undergoing a sham operation were considered as controls.
(§6) Ropinirole (ropinirole hydrochloride, SmithKline Beecham, Italy) and dihydroergocryptine (DHECP) α-dihydroergocryptine methanesulfonate, Monsanto, Italy) were dissolved in saline and injected subcutaneously (s.c.) at the dose of 0.5 and 1 mg/kg/day for 7 days. In the experiments with kainate-induced convulsions, ropinirole or DHECP were injected intravenously (i.v.) 30 min prior, and again at the same time of the intracerebroventricular (i.c.v) injection on kainic acid; Control animals received an injection of saline alone with the same procedure.
(§7) Animals with 2-month chronic brain occlusive ischemia, were subjected to a treatment with ropinirole, DHECP or saline for 7 days. At the end of treatment, the animals were admitted to behavioral testing. Controls were those animals with sham manipulation of brain arteries.

[3] = tested on: animals with chronic brain occlusive ischemia; assay: Open field spontaneous motor activity, chronic brain occlusive ischemia; conditions: for Ambulation / Defecation / Grooming / Rearing: 5 min open field, mean ± S.E.M.
Protocol: as §4, §5, §6
(§8) Spontaneous motor activity was scored in a circular open field arena as described by Weijnen and Slangen, Pituitary, Adrenal and the Brain, pp221-235 (1982). Animals were put inside a circular lit-up arena, with the bottom divided into 27 areas of equal size.
as §7

[4] = tested on: reduced glutathione in brain areas of rats subjected to chronic brain occlusive ischemia; assay: Brain glutathione content and redox index after chronic brain occlusive ischemia; conditions: for reduced glutathione content: mean ± S.E.M.
Text: as §5, §1, §7, §3

[5] = tested on: animals with chronic brain occlusive ischemia; assay: Shuttle-box active avoidance acquisition, chronic brain occlusive ischemia; conditions: for CARs: chronic brain occlusive ischemia (2 months), mean ± S.E.M.
Protocol: as §4, §5, §6
Academic Press, New York, pp59-775, (1981). Briefly, the rats were trained to avoid the unconditioned stimulus (US) of a scrambled electrical foot-shock (0.20 mA) delivered through the grid floor. The conditioned stimulus (CS) was a buzzer presented for 3 s prior to the US. If no escape occurred within 20 s of CS/US presentation, the shock was terminated. A maximum of 30 conditioning trials were given with a variable intertrial interval averaging 60 s. The learning criterion was five consecutive conditioned avoidance responses (CARs). For those animals that reached the criterion in less than 30 trials, the remaining trials until 30 were considered as CARs. Indexes of avoidance behaviour were the total number of CARs and the percent number of learners per group.
as §7

[6] = tested on: animals with hypobaric hypoxia-induced amnesia; assay: Open field spontaneous motor activity, hypobaric hypoxia; conditions: for Ambulation / Defecation / Grooming / Rearing: 5 min open field, mean ± S.E.M.
Protocol: as §4, §6, §8, §2

In the case of `CC(C)C[C@H]1C(=O)N2CCC[C@H]2[C@]2(O)O[C@](NC(=O)[C@@H]3C[C@@H]4c5cccc6[nH]cc(c56)C[C@H]4N(C)C3)(C(C)C)C(=O)N12` [DHECP, α-dihydroergocryptine methanesulfonate], the “glutathione redox index (glutathione reduced/glutathione oxidized ratio)” value ([1]; Cortex, 0.5 mg/kg) is reported as 2.5, the reduced glutathione content ([1]; Cortex, 0.5 mg/kg) is reported as 2.2 ± 0.2 mM and the “glutathione redox index (glutathione reduced/glutathione oxidized ratio)” value ([1]; Cortex, 1 mg/kg) is reported as 2.3. The reduced glutathione content ([1]; Cortex, 1 mg/kg) was 2.5 ± 0.2 mM, the “glutathione redox index (glutathione reduced/glutathione oxidized ratio)” value ([1]; Hippocampus, 0.5 mg/kg) was 1.8 and the reduced glutathione content ([1]; Hippocampus, 0.5 mg/kg) was 2.1 ± 0.2 mM. The “glutathione redox index (glutathione reduced/glutathione oxidized ratio)” value ([1]; Hippocampus, 1 mg/kg) was 2.2, the reduced glutathione content ([1]; Hippocampus, 1 mg/kg) was 2.4 ± 0.2 mM and the “glutathione redox index (glutathione reduced/glutathione oxidized ratio)” value ([1]; Hypothalamus, 0.5 mg/kg) was 2.6. For the same molecule, the reduced glutathione content ([1]; Hypothalamus, 0.5 mg/kg) was 2.8 ± 0.2 mM, the “glutathione redox index (glutathione reduced/glutathione oxidized ratio)” value ([1]; Hypothalamus, 1 mg/kg) was 2.8 and the reduced glutathione content ([1]; Hypothalamus, 1 mg/kg) was 2.8 ± 0.2 mM. The “glutathione redox index (glutathione reduced/glutathione oxidized ratio)” value ([1]; Striatum, 0.5 mg/kg) was 0.7, the reduced glutathione content ([1]; Striatum, 0.5 mg/kg) was 1.8 ± 0.2 mM and the “glutathione redox index (glutathione reduced/glutathione oxidized ratio)” value ([1]; Striatum, 1 mg/kg) was 1.7. The reduced glutathione content ([1]; Striatum, 1 mg/kg) was 2.5 ± 0.2 mM, the “reduced glutathione content and glutathione redox index (effect of treatment, in words)” value ([1]; cortex, hippocampus and hypothalamus, both doses) was “increase” and the “reduced glutathione content and glutathione redox index (effect of treatment, in words)” value ([1]; striatum) was “only with the greater dose”. For the same molecule, the Latency ([2]; 0.5 mg/kg/day s.c. for 7 days) was 46^c,d, the Latency ([2]; 1 mg/kg/day s.c. for 7 days) was 58^d and the “latency to re-enter the dark-box (effect of treatment, in words)” value ([2]; Table 2) was “increased”. For the same molecule, the Ambulation ([3]; 0.5 mg/kg/day s.c. for 7 days) was 68.9 ± 6.6^a,e, the Defecation ([3]; 0.5 mg/kg/day s.c. for 7 days) was 3.4 ± 0.9^a and the Grooming ([3]; 0.5 mg/kg/day s.c. for 7 days) was 22.2 ± 2.3. For the same molecule, the Rearing ([3]; 0.5 mg/kg/day s.c. for 7 days) was 16.4 ± 1.3^e, the Ambulation ([3]; 1 mg/kg/day s.c. for 7 days) was 73.1 ± 5.6^a,e and the Defecation ([3]; 1 mg/kg/day s.c. for 7 days) was 3.7 ± 1.3^a. For the same molecule, the Grooming ([3]; 1 mg/kg/day s.c. for 7 days) was 23.3 ± 2.1, the Rearing ([3]; 1 mg/kg/day s.c. for 7 days) was 16.5 ± 1.9^e and the “ambulation and rearing (effect of treatment, in words)” value ([3]; to a level similar to that of intact controls) was “increased”. For the same molecule, the “glutathione redox index (glutathione reduced/glutathione oxidized ratio)” value ([4]; Cortex, 0.5 mg/kg) was 2.5, the reduced glutathione content ([4]; Cortex, 0.5 mg/kg) was 2.3 ± 0.1 mM and the “glutathione redox index (glutathione reduced/glutathione oxidized ratio)” value ([4]; Cortex, 1 mg/kg) was 2.3. The reduced glutathione content ([4]; Cortex, 1 mg/kg) was 2.6 ± 0.2 mM, the “glutathione redox index (glutathione reduced/glutathione oxidized ratio)” value ([4]; Hippocampus, 0.5 mg/kg) was 1.8 and the reduced glutathione content ([4]; Hippocampus, 0.5 mg/kg) was 2.0 ± 0.2 mM. The “glutathione redox index (glutathione reduced/glutathione oxidized ratio)” value ([4]; Hippocampus, 1 mg/kg) was 2.2, the reduced glutathione content ([4]; Hippocampus, 1 mg/kg) was 2.3 ± 0.3 mM and the “glutathione redox index (glutathione reduced/glutathione oxidized ratio)” value ([4]; Hypothalamus, 0.5 mg/kg) was 2.6. For the same molecule, the reduced glutathione content ([4]; Hypothalamus, 0.5 mg/kg) was 2.8 ± 0.2 mM, the “glutathione redox index (glutathione reduced/glutathione oxidized ratio)” value ([4]; Hypothalamus, 1 mg/kg) was 2.7 and the reduced glutathione content ([4]; Hypothalamus, 1 mg/kg) was 2.7 ± 0.2 mM. For the same molecule, the “glutathione redox index (glutathione reduced/glutathione oxidized ratio)” value ([4]; Striatum, 0.5 mg/kg) was 0.7, the reduced glutathione content ([4]; Striatum, 0.5 mg/kg) was 1.8 ± 0.2 mM and the “glutathione redox index (glutathione reduced/glutathione oxidized ratio)” value ([4]; Striatum, 1 mg/kg) was 0.7. For the same molecule, the reduced glutathione content ([4]; Striatum, 1 mg/kg) was 1.7 ± 0.2 mM, the CARs ([5]; 0.5 mg/kg/day s.c. for 7 days) was 10.6 ± 1.1^a and the CARs ([5]; 1 mg/kg/day s.c. for 7 days) was 14.1 ± 1.1^a. The Learners ([5]; chronic brain occlusive ischemia, 0.5 mg/kg/day s.c. for 7 days) was 20^b percent, the Learners ([5]; chronic brain occlusive ischemia, 1 mg/kg/day s.c. for 7 days) was 10^b percent and the “cognitive parameters of the active avoidance test (effect of treatment, in words)” value ([5]; chronic brain occlusive ischemia, Table 2) was “No statistically significant change”. The Ambulation ([6]; 0.5 mg/kg/day s.c. for 7 days) was 68.9 ± 6.6^b, the Defecation ([6]; 0.5 mg/kg/day s.c. for 7 days) was 3.4 ± 0.9 and the Grooming ([6]; 0.5 mg/kg/day s.c. for 7 days) was 22.2 ± 2.3. The Rearing ([6]; 0.5 mg/kg/day s.c. for 7 days) was 16.4 ± 1.3^a,b, the Ambulation ([6]; 1 mg/kg/day s.c. for 7 days) was 73.1 ± 5.6^a,b and the Defecation ([6]; 1 mg/kg/day s.c. for 7 days) was 3.7 ± 1.3. For the same molecule, the Grooming ([6]; 1 mg/kg/day s.c. for 7 days) was 23.3 ± 2.1, the Rearing ([6]; 1 mg/kg/day s.c. for 7 days) was 16.5 ± 1.9^b and the “ambulation and rearing (effect of treatment, in words)” value ([6]; vs intact controls and saline-treated hypoxic animals) was “higher”.
